Measurements published in ChEMBL document CHEMBL2311358, “Inhibitors of HIV-1 attachment. Part 7: indole-7-carboxamides as potent and orally bioavailable antiviral agents” (Bioorg Med Chem Lett, 2013).
pEC50, pIC50: −log10 of the molar value. Converted amounts (≈) assume the structure as drawn.

Legend:
[1] = Cytotoxicity against human HeLa cells expressing CD4 assessed as cell viability after 6 days by XTT assay; assay type: cell-based
[2] = tested on: Human immunodeficiency virus 1; assay: Antiviral activity against HIV1 JRFL infected in human HeLa cells expressing CD4 and CCR5 assessed as inhibition of single-cycle viral replication by luciferase reporter gene assay; assay type: functional, organism-based; details: Human immunodeficiency virus 1, JRFL
[3] = Permeability across human Caco2 cells at pH 6.5; assay type: ADME, cell-based; details: Caco-2, pH 6.5, read-out: permeability
[4] = Half life in human liver microsomes; assay type: ADME, Microsome
[5] = Oral bioavailability in rat at 5 mg/kg; assay type: ADME, organism-based; details: in vivo
[6] = AUC in monkey at 1 mg/kg, iv and 2.5 mg/kg, po; assay type: ADME, organism-based, Macaca mulatta; details: rhesus monkey, plasma
[7] = Half life in rat at 1 mg/kg, iv; assay type: ADME, organism-based; design: dose 1 mg/kg, route intravenous; details: in vivo
[8] = Clearance in rat at 1 mg/kg, iv; assay type: ADME, organism-based; design: dose 1 mg/kg, route intravenous; details: in vivo
[9] = Half life in monkey at 1 mg/kg, iv; assay type: ADME, organism-based, Macaca mulatta; design: dose 1 mg/kg, route intravenous; details: rhesus monkey, in vivo
[10] = Cmax in rat at 1 mg/kg, iv and 5 mg/kg, po; assay type: ADME, organism-based; details: in vivo
[11] = Aqueous solubility of the compound in crystalline form at pH 6.5; assay type: physicochemical
[12] = Inhibition of CYP450 (unknown origin); assay type: ADME, Homo sapiens
[13] = Cmax in dog at 1 mg/kg, iv and 2.5 mg/kg, po; assay type: ADME, organism-based, Canis lupus familiaris; details: in vivo
[14] = Half life in dog at 1 mg/kg, iv; assay type: ADME, organism-based, Canis lupus familiaris; design: dose 1 mg/kg, route intravenous; details: in vivo
[15] = AUC in dog at 1 mg/kg, iv and 2.5 mg/kg, po; assay type: ADME, organism-based, Canis lupus familiaris; details: plasma
[16] = Cmax in monkey at 1 mg/kg, iv and 2.5 mg/kg, po; assay type: ADME, organism-based, Macaca mulatta; details: rhesus monkey, in vivo
[17] = AUC in rat at 1 mg/kg, iv and 5 mg/kg, po; assay type: ADME, organism-based; details: plasma
[18] = Plasma protein binding in human; assay type: ADME, cell-free; details: read-out: PPB (converted)
[19] = Oral bioavailability in dog at 2.5 mg/kg; assay type: ADME, organism-based, Canis lupus familiaris; details: in vivo
[20] = Solubility of the compound in amorphous form in PEG 400 at pH 6.5; assay type: physicochemical; details: PEG 400, pH 6.5
[21] = Oral bioavailability in monkey at 2.5 mg/kg; assay type: ADME, organism-based, Macaca mulatta; details: rhesus monkey, in vivo
Hepatocyte = assay: Cytotoxicity against human hepatocytes expressing CYP3A4, CYP2C9, CYP2C19, CYP2D6; assay type: ADME, cell-based

SMILES | CC50 at 144 h [1] [nM] | pEC50 [2] | further results
NCCNC(=O)c1ccc(F)c2c(C(=O)C(=O)N3CCN(C(=O)c4ccccc4)CC3)c[nH]c12 | 135000 | 7.89 | 
COc1ncc(OC)c2c(C(=O)C(=O)N3CCN(C(=O)c4ccccc4)CC3)c[nH]c12 | > 300000 | 9.12 | 
CCn1nccc1NC(=O)c1ccc(F)c2c(C(=O)C(=O)N3CCN(C(=O)c4ccccc4)CC3)c[nH]c12 | 166000 | 8.51 | 
C[C@@H]1CN(C(=O)c2ccccc2)CCN1C(=O)C(=O)c1c[nH]c2c(C(N)=O)ccc(F)c12 | 141000 | 9.85 | Papp [3]: 5.1 ×10⁻⁶ cm/s; half-life [4]: 0.417 h
O=C(Nc1cccnc1)c1ccc(F)c2c(C(=O)C(=O)N3CCN(C(=O)c4ccccc4)CC3)c[nH]c12 | 132000 | 8.04 | 
O=C(NCc1ccco1)c1ccc(F)c2c(C(=O)C(=O)N3CCN(C(=O)c4ccccc4)CC3)c[nH]c12 | 71000 | 8.89 | 
O=C(Nc1ccccn1)c1ccc(F)c2c(C(=O)C(=O)N3CCN(C(=O)c4ccccc4)CC3)c[nH]c12 | 69000 | 9.19 | 
O=C(NCCN1CCOCC1)c1ccc(F)c2c(C(=O)C(=O)N3CCN(C(=O)c4ccccc4)CC3)c[nH]c12 | > 300000 | 8.10 | 
CC(=O)N1CC(NC(=O)c2ccc(F)c3c(C(=O)C(=O)N4CCN(C(=O)c5ccccc5)CC4)c[nH]c23)C1 | > 300000 | 7.95 | 
O=C(Nc1nnn[nH]1)c1ccc(F)c2c(C(=O)C(=O)N3CCN(C(=O)c4ccccc4)CC3)c[nH]c12 | > 300000 | 9.40 | Papp [3]: < 1.5 ×10⁻⁶ cm/s; bioavailability [5]: < 1%; half-life [4]: > 1.67 h
O=C(Nc1nccs1)c1ccc(F)c2c(C(=O)C(=O)N3CCN(C(=O)c4ccccc4)CC3)c[nH]c12 | 89000 | 10.24 | Papp [3]: > 30 ×10⁻⁶ cm/s; half-life [4]: 0.0683 h
O=C(NC1=NCCS1)c1ccc(F)c2c(C(=O)C(=O)N3CCN(C(=O)c4ccccc4)CC3)c[nH]c12 | > 300000 | 10.70 | 
NNC(=O)c1ccc(F)c2c(C(=O)C(=O)N3CCN(C(=O)c4ccccc4)CC3)c[nH]c12 | > 300000 | 8.57 | 
O=C(Nc1ccncc1)c1ccc(F)c2c(C(=O)C(=O)N3CCN(C(=O)c4ccccc4)CC3)c[nH]c12 | > 300000 | 8.47 | 
CNC(=O)c1ccc(OC)c2c(C(=O)C(=O)N3CCN(C(=O)c4ccccc4)CC3)c[nH]c12 | > 300000 | 9.12 | Papp [3]: 3.9 ×10⁻⁶ cm/s; half-life [4]: 0.667 h
CONC(=O)c1ccc(F)c2c(C(=O)C(=O)N3CCN(C(=O)c4ccccc4)CC3)c[nH]c12 | > 300000 | 8.42 | 
O=C(NCCc1cc2ccccc2[nH]1)c1ccc(F)c2c(C(=O)C(=O)N3CCN(C(=O)c4ccccc4)CC3)c[nH]c12 | > 300000 | 8.97 | 
C[C@@H]1CN(C(=O)c2ccccn2)CCN1C(=O)C(=O)c1c[nH]c2c(C(N)=O)ccc(F)c12 | > 300000 | 8.85 | 
O=C(Nc1nc(-c2ccccc2)cs1)c1ccc(F)c2c(C(=O)C(=O)N3CCN(C(=O)c4ccccc4)CC3)c[nH]c12 | > 300000 | 9.68 | 

SMILES | CC50 at 144 h [1] [nM] | pEC50 [2] | further results
O=C(Nc1nc2ccccc2[nH]1)c1ccc(F)c2c(C(=O)C(=O)N3CCN(C(=O)c4ccccc4)CC3)c[nH]c12 | 9200 | 10.40 | 
O=C(NCc1cccs1)c1ccc(F)c2c(C(=O)C(=O)N3CCN(C(=O)c4ccccc4)CC3)c[nH]c12 | 44000 | 8.97 | 
O=C(Nc1nncs1)c1ccc(F)c2c(C(=O)C(=O)N3CCN(C(=O)c4ccccc4)CC3)c[nH]c12 | 1740 | 9.72 | 
CNC(=O)c1ccc(F)c2c(C(=O)C(=O)N3CCN(C(=O)c4ccccc4)CC3)c[nH]c12 | > 300000 | 9.28 | Papp [3]: 11.2 ×10⁻⁶ cm/s; AUC [6]: 3430 ng·h/mL; half-life [7]: 2.18 h; clearance [8]: 12 mL/min/kg; half-life [9]: 4.18 h; Cmax [10]: 843 ng/mL; solubility ([11]; aqueous, read-out: solubility): 33 µg/mL (≈ 75.6 µM); pIC50 [12]: < 4.05; bioavailability [5]: 65%; Cmax [13]: 1560 ng/mL; half-life [14]: 2.32 h; AUC [15]: 7030 ng·h/mL; Cmax [16]: 1330 ng/mL; AUC [17]: 4620 ng·h/mL; fraction unbound [18]: 0.011; bioavailability [19]: 93%; half-life [4]: 1.35 h; solubility [20]: 18000 µg/mL (≈ 41200 µM); bioavailability [21]: 70%; pIC50 (Hepatocyte): < 4.24
O=C(C(=O)N1CCN(C(=O)c2ccccc2)CC1)c1c[nH]c2cccc(F)c12 | > 300000 | 8.91 | Papp [3]: 10 ×10⁻⁶ cm/s; clearance [8]: 48 mL/min/kg; solubility ([11]; buffer): 0.005 µg/mL (≈ 0.0132 µM); half-life [4]: > 1.67 h
COc1ccc(C(N)=O)c2[nH]cc(C(=O)C(=O)N3CCN(C(=O)c4ccccc4)CC3)c12 | 244000 | 9.12 | 
O=C(NCc1nc2ccccc2[nH]1)c1ccc(F)c2c(C(=O)C(=O)N3CCN(C(=O)c4ccccc4)CC3)c[nH]c12 | > 300000 | 8.17 | 
CS(=O)(=O)NC(=O)c1ccc(F)c2c(C(=O)C(=O)N3CCN(C(=O)c4ccccc4)CC3)c[nH]c12 | > 300000 | 8.58 | 
O=C(Nc1nc2ccccc2s1)c1ccc(F)c2c(C(=O)C(=O)N3CCN(C(=O)c4ccccc4)CC3)c[nH]c12 | 81000 | 9.49 | 
CNC(=O)c1ccc(F)c2c(C(=O)C(=O)N3CCN(C(=O)c4ccccc4)C[C@H]3C)c[nH]c12 | > 300000 | 9.12 | 
CN(C)C(=O)c1ccc(F)c2c(C(=O)C(=O)N3CCN(C(=O)c4ccccc4)CC3)c[nH]c12 | > 300000 | 6.39 | 
Cc1csc(NC(=O)c2ccc(F)c3c(C(=O)C(=O)N4CCN(C(=O)c5ccccc5)CC4)c[nH]c23)n1 | 29000 | 11.24 | 
O=C(NCc1ccccc1)c1ccc(F)c2c(C(=O)C(=O)N3CCN(C(=O)c4ccccc4)CC3)c[nH]c12 | > 300000 | 6.96 | 
COCCNC(=O)c1ccc(F)c2c(C(=O)C(=O)N3CCN(C(=O)c4ccccc4)CC3)c[nH]c12 | 298000 | 7.73 | 
CN(C)CCNC(=O)c1ccc(F)c2c(C(=O)C(=O)N3CCN(C(=O)c4ccccc4)CC3)c[nH]c12 | > 300000 | 6.50 | 
NC(=O)c1ccc(F)c2c(C(=O)C(=O)N3CCN(C(=O)c4ccccn4)CC3)c[nH]c12 | > 300000 | 8.12 | 
Cc1cc(NC(=O)c2ccc(F)c3c(C(=O)C(=O)N4CCN(C(=O)c5ccccc5)CC4)c[nH]c23)on1 | > 300000 | 9.03 | 
O=C(NS(=O)(=O)c1ccccc1)c1ccc(F)c2c(C(=O)C(=O)N3CCN(C(=O)c4ccccc4)CC3)c[nH]c12 | > 300000 | 9.54 | Papp [3]: 1.5 ×10⁻⁶ cm/s; bioavailability [5]: < 2%; half-life [4]: > 1.67 h
NC(=O)c1ccc(F)c2c(C(=O)C(=O)N3CCN(C(=O)c4ccccc4)CC3)c[nH]c12 | > 300000 | 8.69 | Papp [3]: 2.4 ×10⁻⁶ cm/s; bioavailability [5]: 21%; half-life [4]: > 1.67 h
